Source: PubChem BioAssay AID1918931 (Molecular Pharmacology Branch, DTP, NCI, 2023)

Test system: 138582-337-R-J1-PDC complex spheroid viability
Assay: Anticancer human tumor 138582-337-R-J1-PDC patient-derived Merkel cell tumor cell line growth inhibition
Conditions: for IC50: curve of first compound; for viability, T/C: stronger effect = lower value
In short: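 Complex spheroids of tumor cells with HUVEC and human MSCs, exposed to iadademstat combined with other agents. Each agent tested in half-log steps from near clinical Cmax (else 10 microM top), DMSO ≤0.25%.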

[1] = second compound 0.1 µM, first compound 0.0316 µM
[2] = second compound 0.1 µM, first compound 0.1 µM
[3] = second compound 0.1 µM, first compound 0.316 µM
[4] = second compound 0.1 µM, first compound 1 µM
[5] = second compound 0.1 µM, first compound 3.16 µM
[6] = second compound 0.1 µM, first compound 10 µM
[7] = second compound 0.316 µM, first compound 0.0316 µM
[8] = second compound 0.316 µM, first compound 0.1 µM
[9] = second compound 0.316 µM, first compound 0.316 µM
[10] = second compound 0.316 µM, first compound 1 µM
[11] = second compound 0.316 µM, first compound 3.16 µM
[12] = second compound 0.316 µM, first compound 10 µM
[13] = second compound 1 µM, first compound 0.0316 µM
[14] = second compound 1 µM, first compound 0.1 µM
[15] = second compound 1 µM, first compound 0.316 µM
[16] = second compound 1 µM, first compound 1 µM
[17] = second compound 1 µM, first compound 3.16 µM
[18] = second compound 1 µM, first compound 10 µM
[19] = second compound 3.16 µM, first compound 0.0316 µM
[20] = second compound 3.16 µM, first compound 0.1 µM
[21] = second compound 3.16 µM, first compound 0.316 µM
[22] = second compound 3.16 µM, first compound 1 µM
[23] = second compound 3.16 µM, first compound 3.16 µM
[24] = second compound 3.16 µM, first compound 10 µM
[25] = second compound 10 µM, first compound 0.0316 µM
[26] = second compound 10 µM, first compound 0.1 µM
[27] = second compound 10 µM, first compound 0.316 µM
[28] = second compound 10 µM, first compound 1 µM
[29] = second compound 10 µM, first compound 3.16 µM
[30] = second compound 10 µM, first compound 10 µM
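For viability, T/C in this document: 100% = DMSO vehicle control viability.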

Row | SMILES | IC50 (second compound 0.1 µM) | IC50 (second compound 0.316 µM) | IC50 (second compound 1 µM) | IC50 (second compound 3.16 µM) | IC50 (second compound 10 µM) | viability, T/C [1] | viability, T/C [2] | viability, T/C [3] | viability, T/C [4] | viability, T/C [7] | viability, T/C [8] | viability, T/C [9] | viability, T/C [10] | viability, T/C [13] | viability, T/C [14] | viability, T/C [15] | viability, T/C [16] | viability, T/C [19] | viability, T/C [20] | viability, T/C [21] | also measured
1 | CC(C)c1c(-c2ccccc2)nc2c(C#N)c[nH]n2c1=O + NC1CCC(NC2CC2c2ccccc2)CC1 | > 10000 nM | > 10000 nM | > 10000 nM | > 10000 nM | > 10000 nM | 104% | 103% | 93.8% | 92.3% | 94.2% | 102% | 94.8% | 82% | 86.3% | 93.9% | 85.7% | 92% | 90% | 86.5% | 97.3% | viability, T/C [5]: 86%; viability, T/C [6]: 89.7%; viability, T/C [11]: 97.1%; viability, T/C [12]: 102%; viability, T/C [17]: 90%; viability, T/C [18]: 106%; viability, T/C [22]: 79.5%; viability, T/C [23]: 81.5%; viability, T/C [24]: 83.5%; viability, T/C [25]: 96.7%; viability, T/C [26]: 82.7%; viability, T/C [27]: 73.4%; viability, T/C [28]: 88.2%; viability, T/C [29]: 80.4%; viability, T/C [30]: 79.7%
2 | CC1COCCN1c1cc(-c2ccnn2C)c2ccnc(-c3ccn[nH]3)c2n1 (stereo not given) + NC1CCC(NC2CC2c2ccccc2)CC1 | 441 nM | 231 nM | 454 nM | 332 nM | 332 nM | 77.4% | 75.8% | 53.8% | 36.7% | 91.3% | 65% | 47.9% | 38.2% | 80% | 70% | 50.3% | 44.7% | 77.3% | 69.2% | 47.9% | viability, T/C (second compound 0.1 µM, first compound 0.00316 µM): 90.8%; viability, T/C (second compound 0.1 µM, first compound 0.01 µM): 91.8%; viability, T/C (second compound 0.316 µM, first compound 0.00316 µM): 76.9%; viability, T/C (second compound 0.316 µM, first compound 0.01 µM): 104%; viability, T/C (second compound 1 µM, first compound 0.00316 µM): 110%; viability, T/C (second compound 1 µM, first compound 0.01 µM): 101%; viability, T/C (second compound 3.16 µM, first compound 0.00316 µM): 89%; viability, T/C (second compound 3.16 µM, first compound 0.01 µM): 77.9%; viability, T/C [22]: 40.1%; viability, T/C (second compound 10 µM, first compound 0.00316 µM): 75.7%; viability, T/C (second compound 10 µM, first compound 0.01 µM): 73.4%; viability, T/C [25]: 72.6%; viability, T/C [26]: 67.4%; viability, T/C [27]: 50.2%; viability, T/C [28]: 42.6%
3 | COc1ccc([C@@H](O)c2cc(-c3ncnc4cc(N5CCOCC5)ccc34)c(F)cc2Cl)nn1 + NC1CCC(NC2CC2c2ccccc2)CC1 | 1560 nM | 2570 nM | 1480 nM | 1800 nM | 1410 nM | 80.6% | 96.2% | 76.5% | 54.6% | 76.4% | 77.3% | 62.6% | 63.1% | 83.1% | 74.5% | 71.7% | 50.3% | 81.1% | 90.1% | 69.1% | viability, T/C [5]: 44.9%; viability, T/C [6]: 32.9%; viability, T/C [11]: 46.8%; viability, T/C [12]: 33.3%; viability, T/C [17]: 44.7%; viability, T/C [18]: 33.7%; viability, T/C [22]: 61.2%; viability, T/C [23]: 40.7%; viability, T/C [24]: 24.2%; viability, T/C [25]: 87.2%; viability, T/C [26]: 72.5%; viability, T/C [27]: 75.9%; viability, T/C [28]: 47.1%; viability, T/C [29]: 43.4%; viability, T/C [30]: 14.2%
